pIC50: −log10 of the molar value.
biological target: not listed separately; experiment: Inhibition of Mycobacterium tuberculosis uracil-DNA glycosylase by fluorescence based assay

Row | Compound | pIC50
1 | CC(C)c1ccc(OCC(=O)Nc2c[nH]c(=O)[nH]c2=O)cc1 | 2.12
2 | O=c1cc(Nc2ccc(N3CCCCC3)cc2)[nH]c(=O)[nH]1 | 3.10
3 | CC(C)(C)[C@H](COc1ccccc1F)NC(=O)c1nc(=O)[nH][nH]1 | 1.95
4 | CC(=O)N(CC(O)CO)c1c(I)c(C(=O)NCC(O)CO)c(I)c(C(=O)NCC(O)CO)c1I (stereo not given) [IOHEXOL] | 3.22
5 | O=C1CN(/N=C/c2ccc([N+](=O)[O-])o2)C(=O)N1 [NITROFURANTOIN] | 3.01
6 | CC(C)(Cc1cccc(Cl)c1)C(=O)NCCc1n[nH]c(=O)[nH]1 | 2.39
7 | Cc1[nH]c(=O)[nH]c(=O)c1CC(=O)N(Cc1ccc2c(c1)OCO2)Cc1ccccc1F | 3.85
8 | COc1ccc(C(=O)Nc2c[nH]c(=O)[nH]c2=O)cc1[N+](=O)[O-] | 1.82
9 | Cc1ccc(CCOc2ccc(C[C@@H]3SC(=O)NC3=O)cc2)nc1 | 2.05
10 | O=C(Nc1c[nH]c(=O)[nH]c1=O)c1cccc(N2C(=O)CCC2=O)c1 | 2.67
11 | CCC(C)(C)C(=O)O[C@H]1C[C@@H](C)C=C2C=C[C@H](C)[C@H](CC[C@@H]3C[C@@H](O)CC(=O)O3)[C@H]21 [SIMVASTATIN] | 2.98
12 | O=C(NCc1nc2ccc(Cl)cc2[nH]1)c1c[nH]c(=O)[nH]c1=O | 2.19
13 | Cc1ccc(-c2csc3c(=O)n(CC#N)cnc23)cc1 | 2.10

test system: Mycobacterium tuberculosis; experiment: Potency index, ratio of uracil IC50 to test compound IC50 for inhibition of Mycobacterium tuberculosis uracil-DNA glycosylase

Row | Compound | Ratio IC50
14 | Cc1[nH]c(=O)[nH]c(=O)c1CC(=O)N(Cc1ccc2c(c1)OCO2)Cc1ccccc1F | 15

test system: not listed separately; experiment: Inhibition of Mycobacterium tuberculosis uracil-DNA glycosylase expressed in Escherichia coli BL21 (DE3) rosetta cells incubated for 10 sec under shaking condition and measured every 2 mins for 40 mins by fluorescence based assay

Row | Compound | pIC50
15 | O=c1cc[nH]c(=O)[nH]1 [URACIL] | 2.69

Reference: ChEMBL document CHEMBL5236574, “Identification of a new and diverse set of Mycobacterium tuberculosis uracil-DNA glycosylase (MtUng) inhibitors using structure-based virtual screening: Experimental validation and molecular dynamics studies” (Bioorg Med Chem Lett, 2022)
